Results published in a melting point compilation (Tetko et al.; mined from patent text by program, amines drawn as free bases though some values may be those of a salt).

| melting point | SMILES |
| --- | --- |
| 210 °C | CNc1nc2ccn(Cc3ccc(F)cc3)cc-2n1 |
| 167 to 168 °C | CCCCCc1nc2c(N)nc3c(c2n1CCCCNS(C)(=O)=O)CCCC3 |
| 178 °C | CCc1nnc(-c2ccc(OC)cc2)n1-c1ccc([N+](=O)[O-])cc1 |
| 86 °C | O=S(=O)(CC=Cc1ccccc1)CCCO |
| 149 to 151 °C | Cc1sc2ncc(C(O)C=Cc3ccccc3)n2c1C (stereo unspecified) |
| 146 to 147 °C | CCCc1[nH]c2cc(C(=O)OC)ccc2c1C(=O)C=C(C)C |
| 178 to 179 °C | COc1cc(C(C)C)c2c(c1)S(=O)(=O)N(COC(=O)C(C)(C)C)C2=O |
| 220 to 223 °C | COc1cc(Nc2c(C#N)cnc3cc(OS(=O)(=O)C(F)(F)F)c(OC)cc23)c(Cl)cc1Cl |
| 225 to 228 °C | COc1ccc(-c2csc(Nc3ncccn3)n2)cc1OC |
| 141 to 142 °C | COc1cnc2c(-c3cccc(C(F)(F)F)c3)ccc(C)c2n1 |
| 65 to 69 °C | Cc1nc2c(cc1Cl)C(=O)N(C)CC(CCCl)O2 (stereo unspecified) |
| 149 to 151 °C | Cc1cc(-c2cc(O)c(SCCc3ccccc3)c(=O)o2)ccc1OCc1cccnc1 |
| 72 °C | CC#CCOc1ccc(S(=O)(=O)NC(C(=O)NO)C(C)(C)SCCN2CCOCC2)cc1 (stereo unspecified) |
| 219 to 221 °C | CC(C)Cn1c(CNC(=O)OC(C)(C)C)c(-c2cccs2)c2cc(OCC(N)=O)ccc2c1=O |
| 121 to 122 °C | COc1ccc(CNc2nc(NCc3ccc(C(O)C(F)(F)F)cc3)nc3ncccc23)cc1OC (stereo unspecified) |
| 247 °C | CCOC(=O)C1=C(Cc2ccccc2)Nc2n[nH]cc2C1c1ccccc1Cl (stereo unspecified) |
| 268 to 270 °C | O=C1CC2(C(=O)N1)C(=O)N(Cc1ccc(Cl)c(Cl)c1)c1ccc(Cl)cc12 (stereo unspecified) |
| 134 to 136 °C | CCOC(=O)C(C(=O)OCC)[C@@H](c1ccccc1)c1c[nH]c2cccc(OC)c12 |
| 259 to 260 °C | Cn1c2c(c3cc(Cl)ccc31)CCC(C(=O)O)C2 (stereo unspecified) |
| 115 to 117 °C | O=C(Nc1[nH]nc(-c2c(Cl)cc(C(F)(F)F)c(F)c2Cl)c1[N+](=O)[O-])C(Cl)Cl |
| > 160 °C | CCCCc1nn2cc(-c3ccccc3)nc2n1Cc1ccc(-c2ccccc2-c2nnn[nH]2)cc1 |
| 108 to 110 °C | N#CSc1cc(N)c(N)cc1Cl |
| 159 to 160 °C | COc1cc(OC)c(C(=O)c2cc(Cl)ccc2NC(C)=O)c(OC)c1 |
| 246 °C | O=c1[nH]c2cccc(O)c2n1CCN1CCN(c2cccc(C(F)(F)F)c2)CC1 |

| melting point | SMILES |
| --- | --- |
| 157 to 159 °C | Nc1ccc(CCCCOCCCCCCNCC(O)c2cc(O)cc(O)c2)cc1 (stereo unspecified) |
| 148 °C | CC(C)(C)OC(=O)NNC(=O)c1ccc(O)c(O)c1 |
| 111 to 115 °C | COc1cccc(CN2CCc3cc(O)ccc3C2)c1OC |
| 135 °C | COc1ccc(N=C(N)N(C)C)c(N2CCOCC2)c1 |
| 187 °C | CN1CCC(=C2c3ccc(Cl)cc3CCn3ccnc32)CC1 |
| 182 to 185 °C | O=C1N(c2ccc(Cl)cc2)c2ncccc2C1(Cc1ccccc1)Cc1ccncc1 (stereo unspecified) |
| 273 to 276 °C | O=C1c2cc(F)ccc2-n2c1nc1ccccc1c2=O |
| 165 °C | FC(F)(F)c1nc2ccc(Cn3ccnc3)cc2n1CC1CCCCC1 |
| 111 to 112 °C | CC(=O)N(N=Nc1cc(C(F)(F)F)ccc1C#N)c1cc(C(F)(F)F)ccc1C#N |
| 185 to 192 °C | COc1cc(/C=C/C(=O)CC(=O)/C=C/c2ccc(O)cc2Cl)ccc1O |
| 52 to 53 °C | CNc1cc(F)ccc1C(C)=O |
| 246 to 248 °C | O=C(NC1C(=O)Nc2ccccc2SC1c1ccccc1)OCc1ccccc1 (stereo unspecified) |
| 218 °C | O=c1nc(-c2cccc(-c3ccco3)n2)sc2ccccc12 |
| 225 to 230 °C | FC(F)(F)c1nc2cc(Cl)c(Cl)cc2[nH]1 |
| 128 to 132 °C | CN(C)C=C(C=O)c1cccc(C(F)(F)F)c1 |
| 130 °C | O=C1CCC(c2ccc(CCCN3CCN(c4ccccc4)CC3)cc2)N1 (stereo unspecified) |
| 105 °C | [O-][N+](=Cc1ccccc1)CCCCCC[N+]([O-])=Cc1ccccc1 |
| 49.4 °C | CCC(C)COc1ccc(-c2ccc(O)c(Br)c2)cc1 (stereo unspecified) |
| 115 to 118 °C | COc1cc(N)c(Cl)cc1C(=O)NCC1CCN(CCCCCC(=O)c2cccs2)CC1 |
| 77 °C | CC(C)(C)OC(=O)c1ccc2cncn2c1 |
| 76 to 84 °C | O=S1(=O)CC=C(CBr)C1 |
| 89 to 90 °C | C=CC(=O)c1ccc([N+](=O)[O-])cc1 |
| 71 to 73 °C | Clc1cccc(-n2ccnc2)n1 |
| 227 to 229 °C | O=C(Nc1cc(F)ccc1O)c1cc(Cl)c(O)c(Cl)c1 |

| melting point | SMILES |
| --- | --- |
| 156 to 158 °C | COc1ccc(Cn2nc(-n3cnn(Cc4ccc(F)cc4)c3=O)cc2C(=O)NCc2ccc(F)c(F)c2)cc1 |
| 125 °C | Cc1cc(Oc2ccc(NC(=O)c3ccccc3C(c3ccc(O)cc3)c3ccc(O)cc3)cn2)cc(C)c1Cl |
| 198 to 201 °C | O=S(Cc1ccc(Cl)c(Cl)c1)c1nc2cnccc2[nH]1 (stereo unspecified) |
| 253 °C | CCOc1ccccc1C1(O)C(=O)Nc2cc(C)c(Cl)cc21 (stereo unspecified) |
| 245 °C | O=C1c2ccccc2C(=O)N1c1ccc2ccc(F)nc2n1 |
| 218 to 220 °C | CC(C)(C)c1cc(CCC2(CCc3cc(C(C)(C)C)c(O)c(C(C)(C)C)c3)NC(=O)NC2=O)cc(C(C)(C)C)c1O |
| 243 to 245 °C | COc1ccc2c(c1OC)CC[C@@H]1NC(=O)CC[C@H]21 (relative stereo) |
| 190 to 191 °C | CC(=O)Oc1ccc(-c2c3ccccc3c(Br)c3sc(C)c(C)c23)cc1 |
| 160 °C | CCOC(=O)C1=COc2ccc(O)cc2O1 |
| 160 to 162 °C | CN1CCC(=O)C(C2c3ccccc3Oc3ccccc32)C1 (stereo unspecified) |
| 52 °C | N#CC(N)c1ccc(F)cc1F (stereo unspecified) |
| 156 to 159 °C | Cc1ccccc1C(=O)NCN1CCN(c2cccc(C#N)c2)CC1 |
| 166 to 168 °C | O=C(NCc1ccc(Cl)cc1)c1cnc2cc(CCCO)ccc2c1O |
| 209 to 210 °C | CSc1nn2c(N3CCN(C)CC3)cc(C)nc2c1S(=O)(=O)c1ccccc1 |
| 162 to 165 °C | CN(C)c1ccc(NC(=O)N(C[C@H]2CC[C@H](CN(C(=O)Nc3ccc(N(C)C)cc3)C3CCCC3)CC2)C2CCCC2)cc1 |
| 218 to 220 °C | N#CCc1c[nH]c2cnc(-n3cncn3)cc12 |
| 170 °C | CC(C)(CCl)C(O)C(=Cc1ccc(Cl)cc1)n1cncn1 (stereo unspecified) |
| 109 to 111 °C | O=S(=O)(F)c1cc2nc(Cl)c(Cl)nc2cc1Cl |
| 39 to 41 °C | O=C1c2ccccc2OCN1CCCCCO[N+](=O)[O-] |
| 107 to 111 °C | Cc1ccc(C(=O)Cc2ccccc2)cc1 |
| 275 °C | Cc1ccc(N2C(=O)C(O)=C(C(=O)c3ccc(C(C)C)cc3)C2c2ccc(OC3CCOCC3)cc2)nn1 (stereo unspecified) |
| 132 to 136 °C | CC(C)c1cc(CN2C(=O)C3(COc4cc5c(cc43)OCO5)c3ccccc32)on1 (stereo unspecified) |
| 112 to 113 °C | CCN(C(=O)N1CCN(c2ccccc2OC)CC1)c1cc(C)c(C)nc1OC |
| 175 to 177 °C | CC1C=C(c2nc3cccc(F)c3s2)C=CC1=N (stereo unspecified) |

| melting point | SMILES |
| --- | --- |
| 240 to 248 °C | CS(=O)(=O)Nc1cccc(CNC(=O)c2nc3ccccc3c(=O)[nH]2)c1 |
| 152 to 154 °C | COc1ccc2c(c1)c(OC(C)C)c(C(N)=O)n2-c1ccccc1 |
| 218 to 220 °C | COc1ccc2c(=O)[nH]c(-c3cc(C)c(OCCN4CCCC4)c(C)c3)nc2c1 |
| 155 to 165 °C | CC1=C(CN2CC(C(=O)O)C2)CCc2cc(OCc3ccc(C(F)(F)F)cc3C(F)(F)F)ccc21 |
| 228 to 230 °C | O=C1c2sccc2-n2cncc2[C@@H]2CCCN12 |
| 130 to 131 °C | CC1CC(=O)c2c(SCc3ncn(C)n3)ccc(-c3nccs3)c2C1 (stereo unspecified) |
| 218 to 219 °C | CC(=O)c1c(C)c(NC(=O)CC(C)(C)C)c(C)c2c1SCC2c1ccc(C(C)C)cc1 (stereo unspecified) |
| 165 to 166 °C | CN1CCC(c2ccc(F)cc2)(C(C)(C)O)CC1 |
| 130 to 135 °C | O=C(CC12CC3CC(CC(C3)C1)C2)Nc1cccc2nc(CCCNCCCO)ccc12 |
| 49 to 52 °C | O=C(Cc1cc(C(F)(F)F)cc(C(F)(F)F)c1)N1CCN(C(=O)CNC2CCN(Cc3ccccc3)CC2)C(c2ccccc2)C1 (stereo unspecified) |
| 102 to 110 °C | CC(=O)NCC1CN(c2ccc(N3CC4CCCN(C(=O)CO)C4C3)c(F)c2)C(=O)O1 (stereo unspecified) |
| 171 to 172 °C | CN1CCCN(c2cc3ccccc3c(=O)[nH]2)CC1 |
| 151 °C | N#CCCc1cccc2ccn(Cc3cccc(/C=C/c4ccc5ccc(Cl)cc5n4)c3)c12 |
| 118 to 120 °C | Oc1ccc2c(c1)CCC(NCC(O)COc1cccc3ccccc13)C2 (stereo unspecified) |
| 234 to 236 °C | CC1(C)NC(=O)CSC1=NO |
| > 300 °C | Cc1cc2n(C)c3ccncc3c(=O)n2n1 |
| 156 to 159 °C | CC(C)N1CCN(c2ccc(N)cc2)C(=O)C1 |
| 118 to 120 °C | O=C(Nc1ccc2c(c1)CCSCC2)OCc1ccccc1 |
| 107 to 109 °C | CC(C)Nc1ccc(-c2ncc(C(F)(F)F)cc2Cl)cc1[N+](=O)[O-] |
| 204 to 205 °C | Cc1oc(-c2ccccc2)nc1CCOc1ccc(C=CC=C2OC(=O)NC2=O)cn1 |
| 75 to 77 °C | CC(CCc1nnn[nH]1)Cc1ccc(OCc2ccc3ccccc3n2)cc1 (stereo unspecified) |
| 216 to 218 °C | NC(=O)C=Cc1cccc(NC(=O)c2cc(-c3cccc(F)c3)ccc2F)c1 |

| SMILES | melting point |
| --- | --- |
| COC(=O)[C@@H]1COC(c2ncn3c2CN(C)C(=O)c2ccccc2-3)=N1 | 190 to 192 °C |
| CN1C(=O)[C@@H](NC(=O)c2ccc(C(F)(F)F)cc2)N=C(c2ccccc2)c2ccccc21 | 125 to 127 °C |
| CCCCCNc1nc2ccccc2n1C1CCN(C2(c3ccccc3)CCCCCC2)CC1 | 156 to 159 °C |
| COc1ccccc1COC(=O)c1ncn2c1[C@@H]1CCCN1C(=O)c1c(Cl)cccc1-2 | 178 to 179 °C |
| Cc1c2c(nc3c(C(F)(F)F)cccc13)CCCNC2 | 78 °C |
| O=c1[nH]ccn1CC#CCN1CCCC1 | 99 to 102 °C |
| CCC1(CCCCN2CC=C(c3ccc(Cl)cc3)CC2)C(=O)Nc2ccccc21 (stereo unspecified) | 142 to 145 °C |
